# US10406227B2, “Photoactivated molecules for light-induced modulation of the activity of electrically excitable cells and methods of using same” (University of Southern California, priority 2012, dated 2019)
# Where two headings read alike, the source gives them in different places.
# Legend:
# [1] = test system: primary cultured mouse chromaffin cells; experiment: Imaging RubpyC17 in live cells (membrane luminescence); type: cell-based
# Description: Cells were imaged at 1-3 days after plating. The glass-bottomed chambers with adherent cells were washed twice with PBS and then filled with standard extracellular solution consisting of 140 mM NaCl, 2.8 mM KCl, 10 mM HEPES, 1 mM MgCl2, 2 mM CaCl2, and 10 mM glucose, pH adjusted to 7.2-7.4 and osmolarity adjusted to 290-310 mOsm. The chamber was then mounted on an Olympus IX70 inverted microscope stage for imaging, using a Cascade 512B EMCCD camera, operated by Metamorph software. Initial imaging was done with cells in extracellular solution without RubpyC17, first under brightfield to evaluate cell health and morphology, then under widefield argon ion laser illumination at 488 nm (Coherent, Innova 90-5, Santa Clara, Calif.), to evaluate autofluorescence. Next, the extracellular solution was removed and replaced with extracellular solution containing the RubpyC17 compound (10 μM in ≤0.01% DMSO, final concentrations). Cell images were then acquired with illumination at 488 nm (collected with a long-pass red emission filter). For electrophysiological experiments, RubpyC17 compound was added to the extracellular solution (2-10 μM in ≤0.01% DMSO, final concentrations as indicated) and cells were incubated for 1.5-45 min, as indicated, then washed with extracellular solution without RubpyC17. Some chromaffin cells were also exposed continuously to 490-900 nM RubpyC17-containing extracellular solution.
# Illustrated here are rat insulinoma INS cells (FIG. 1C, top), human embryonic kidney (HEK293T) cells (FIG. 1C, middle), and primary cultured mouse chromaffin cells (FIG. 1C, bottom). […] All cell types preserved morphology for at least 10 minutes. […] One embodiment of the possible light-induced electron transfer is depicted in FIG. 1D.
# [2] = cited from earlier work
# [3] = test system: INS and HEK293T cells; experiment: Time course of light-induced membrane potential change in single cells (patch clamp); type: cell-based
# Description: (§1) Membrane potential was monitored using whole cell patch clamp in current-clamp mode. Cultured cells (INS and HEK293) were plated on a glass-bottomed culture dishes 1-3 days prior to recording. Cells were incubated in standard extracellular solution with or without 10 μM RubpyC17 compound for approximately 1.5-2 minutes, then washed and incubated with standard extracellular solution without additional supplementation, or with 2-5 mM ascorbate, 100 μM sodium ferrocyanide, or 100-200 μM potassium ferricyanide, as indicated. The chamber was transferred to the microscope stage. Extracellular solution consisted of 140 mM NaCl, 2.8 mM KCl, 10 mM HEPES, 1 mM MgCl2, 2 mM CaCl2, 10 mM glucose, pH adjusted to 7.3, and osmolarity adjusted to 300-310. Conventional whole-cell patch clamp recordings were performed with an EPC-9 amplifier and Pulse software (HEKA Electronics). Pipette electrodes of 1.8-3.5 Mohm were fire polished before use. Intracellular solution consisted of: 145 mM KCl, 10 mM NaCl, 1 mM MgCl2, 1 mM EGTA, 2 mM ATP, 0.3 mM GTP and 10 mM HEPES, pH adjusted to 7.3 and osmolarity adjusted to 290-300 mOsm. To monitor changes in membrane voltage/potential, cells were patch clamped in current-clamp mode. Access resistances were in the range of 3-8 Mohm. Using Pulse, membrane potentials were recorded before, during and after illumination by the argon ion laser at 488 nm with an irradiance value of 0.458 mE s^−1 m^−2 or by a xenon lamp source through a 470/40 nm bandpass excitation filter with an irradiance value of 0.480 mE s^−1 m^−2. The duration of illumination varied and the timing is indicated by bars on the figures.
# It was discovered that luminescent cells undergo depolarization when illuminated for 25 seconds or longer when reductants (e.g., ascorbate) are present or for 10 seconds or longer when oxidants (e.g., ferricyanide) are present (FIG. 2A). Other oxidants or reductants are used in several embodiments, such as those that are, normally present (or biologically compatible) in the environment of a certain target tissue. In several embodiments, it is possible that light-induced depolarization or hyperpolarization amplitude or rate is controlled by varying illumination time or intensity.
# To reach a maximum effect, the light-triggered depolarization in RubpyC17-treated cells requires on the order of 30 seconds of continuous illumination at 0.46-0.48 mE s−1 m2 (FIGS. 2B-F) The time course observed is dependent on several factors, and may be greater or lesser during in vivo applications. One, it is related to the probability of photon absorption per unit time by membrane-associated RubpyC17, which depends on the concentration of RubpyC17, the partitioning into the membrane, and the photon flux. […]
# [4] = test system: INS cells; experiment: Whole cell patch clamp, current-clamp membrane potential under blue light; type: cell-based, rat; conditions: for light-induced increase in membrane potential (depolarization): 10 μM ~2 min preincubation, 488 nm
# Description: as §1, with “The duration of illumination varied and the timing is indicated by bars on the figures.” left out
# Initial attempts were tied to INS and HEK cells, both cells that are not excitable under normal conditions (INS cells were maintained in low glucose <3 mM to prevent action potentials). […] To monitor the plasma membrane potential, the cells were patch-clamped in whole-cell configuration in current-clamp mode and membrane voltages were recorded while illuminating the cell at 488 nm (0.46-0.48 mE s^−1 m^−2), though other wavelengths are useful, depending on the embodiment.
# [5] = test system: RCS rats; experiment: Extracellular recording from superior colliculus after intravitreal injection; type: in vivo, rat
# Source text: This finding was reproduced in 3 of 3 RCS rats injected with Rubpy-C17, and in 2 of 2 control (sham injection) RCS rats.
substance,measurement,setting,value
[Ru(bpy)2(bpy-C17)](PF6)2 [RubpyC17],time cell morphology preserved,[1]; 10 μM RubpyC17,at least 10 minutes
same,incorporation into plasma membrane (membrane-localized luminescence),"[1]; 10 μM in bath, 488 nm excitation",rapidly and stably incorporates into mammalian cell membranes
same,membrane luminescence after removal from bath solution,[1]; 10 minutes after RubpyC17 removal,still observed
same,electron transfer rate ket,"[2]; photo-activated RubpyC17 to oxidant ferricyanide, aqueous solution",~6.5e+09 M⁻¹ s⁻¹
same,electron transfer rate ket,[2]; reductant ascorbate to photo-activated RubpyC17,~2e+07 M⁻¹ s⁻¹
same,continuous illumination to reach maximum depolarization,[3]; 0.46-0.48 mE s−1 m2,~30 s
same,illumination duration giving membrane potential change,"[3]; oxidants (e.g., ferricyanide) present",≥ 10 s
same,reversibility of light-induced depolarization,[3]; presence of reductants,appears to be irreversible
same,illumination duration giving membrane potential change,"[3]; reductants (e.g., ascorbate) present",≥ 25 s
same,light-induced increase in membrane potential (depolarization),[4]; 2 mM ascorbate,15.9 ± 4.6 mV
same,light-induced increase in membrane potential (depolarization),[4]; absence of ascorbate,9.8 ± 4.5 mV
same,light-triggered depolarization with non-permeating ions,"[4]; NMDG for sodium, cesium for potassium, ascorbate present",still persisted
same,RCS rats showing light-evoked superior colliculus activity,"[5]; intravitreal, final concentration 100 μM",3 of 3
same,light-evoked electrical activity in superior colliculus,"[5]; intravitreal, final concentration 100 μM, 30 minutes after injection",elicited reproducible and stereotypical electrical activity
same,persistence of light-induced SC electrical responses after injection,[5]; single eye injection,up to 3 days
